Source: PMC10222839, “Development of Novel Small-Molecule Activators of Pyruvate Kinase Muscle Isozyme 2, PKM2, to Reduce Photoreceptor Apoptosis” (Pharmaceuticals, 2023)
In brackets after ≈: the same amount, converted by molar mass.

How the values were obtained:
[1] = Aqueous solubility (Eurofins Panlabs, HPLC-UV/Vis); assay type: physicochemical; details: aqueous buffer, kinetic from dmso stock; PBS, pH 7.4, 24 h, room temperature (Table 1)
Procedure: In brief, each compound was tested at a concentration of 200 μM in PBS, pH 7.4, and room temperature. […] The area of the principal peak in a calibration standard for each compound (200 μM) in organic solvent (60/40 v/v% methanol: water) was compared to the area of the corresponding peak in the PBS sample [42]. Compounds 16–21 underwent solubility testing at Analiza (Cleveland, OH, USA), a contract research organization. Five hundred microliters of PBS, pH 7.4 was added to each amount of compound provided. The samples were vortexed briefly and then placed on a rotary shaker at 200 RPM for 24 h at ambient temperature. Thereafter, the samples were vacuum filtered through a 0.45-micron membrane, and the filtrates were injected into a nitrogen detector for quantification. The nitrogen detector was calibrated using standards, and the filtrates were quantitated based on the calibration curve.

661W cells = test: Cell viability of 661W cells (RealTime-Glo MT); assay type: cell-based; details: for cell viability: in presence of FasL, 48 h, versus vehicle
Procedure: (§1) To be confident the pyridazinoindolone core could be utilized in future medicinal chemistry efforts, its photoreceptor neuroprotective effect was assessed. […] Fas signaling has a critical role in caspase activation and photoreceptor apoptosis after experimental retinal detachment. 661W cells die via caspase-mediated mechanisms, and the Fas-ligand (FasL) treatment of these cells leads to the activation of caspases and subsequent death, analogous to the in vivo experimental retinal detachment model. Furthermore, similar to photoreceptors, 661W cells express PKM2 (Figure 4a), and these cells have been used to garner information on the role of metabolism in photoreceptor degeneration. As such, this is a suitable in vitro model of photoreceptor stress that can be utilized to assess the consequences of reprogramming metabolism by pharmacologically activating PKM2 [9]. 661W cells were treated with FasL and either compound 2 or vehicle (DMSO).
A luminescent assay kit (RealTime-Glo MT Cell Viability Assay, Promega, Madison, WI, USA, Cat No. G9711) was utilized to assess cell viability. As above, 661W cells were seeded in 96-well plates (Nunc, Rochester, NY, USA) at 2500 cells/well 1 day before treatment. The 661w cells were also pre-treated with compound 2 or DMSO for 2 h before adding 500 ng/mL FasL and 250 ng/mL HA. Viability was measured 48 h after the addition of these latter reagents. As with the caspase assays, luminescence was monitored via a plate reader luminometer (BMG Labtech, Inc., Cary, NC, USA).

[2] = biological target: T1, pyruvate kinase (PK) activity in 661W cells (Mus musculus, UniProt P52480); test: PK activity in 661W cell lysates after 2 h incubation with activator; assay type: cell-based
T1 construct: endogenous in cells; host or cells: 661W photoreceptor-like cells
Procedure: The potency and efficacy of each compound, 1 through 5, was assessed with recombinant human PKM2 using an enzyme-coupled assay that uses lactate dehydrogenase and measures the reduction in NADH via absorbance at 340 nm. […] To assess the ability of this pyridazinoindolone series of compounds to cross cellular membranes and increase PK activity, we utilized 661W cells, which are immortalized photoreceptor-like cells that express cone markers.
Cell culture. Next, 661W cells were incubated with either DMSO or different concentrations of small-molecule PKM2 activator for 2 h, lysed and homogenized in RIPA Lysis and Extraction Buffer (Thermo Fisher, Waltham, MA, USA, Cat No. 89900) with protease inhibitors (Complete-Mini, Roche Diagnostics, Indianapolis, IN, USA), and centrifuged at 10,000 rpm for 10 min to remove cellular debris. The supernatant (4–8 μL) was then used to assess the pyruvate kinase activity as described above. The total protein content was determined using the Pierce BCA protein assay kit (Thermo Fisher, Waltham, MA, USA, Cat No. 23225) with the Pierce™ Bovine Serum Albumin Standard Pre-Diluted Set (Thermo Fisher, Waltham, MA, USA, Cat No. 23208) and used to normalize activity as described previously.

[3] = tested on: caspase 3 and 7 activation in 661W cells; test: Caspase 3/7 activity assay in 661W cells (Caspase-Glo 3/7); assay type: cell-based
Procedure: as §1
Caspase 8 and caspase 3/7 activity was measured using luminescent assay kits (Caspase-Glo 8 and 3/7 Assay Systems, Promega, Madison, WI, USA, Cat Nos. G8200 and G8090, respectively). […] As previously published, caspase activity was measured 8 h after treatment by incubating cells with substrate for 1 h as per the manufacturer’s instructions. A plate reader luminometer (BMG Labtech, Inc., Cary, NC, USA) assessed luminescence.

[4] = no FasL, concentration near AC50 or more than 10-fold greater

T1 sequence (P52480 whole entry): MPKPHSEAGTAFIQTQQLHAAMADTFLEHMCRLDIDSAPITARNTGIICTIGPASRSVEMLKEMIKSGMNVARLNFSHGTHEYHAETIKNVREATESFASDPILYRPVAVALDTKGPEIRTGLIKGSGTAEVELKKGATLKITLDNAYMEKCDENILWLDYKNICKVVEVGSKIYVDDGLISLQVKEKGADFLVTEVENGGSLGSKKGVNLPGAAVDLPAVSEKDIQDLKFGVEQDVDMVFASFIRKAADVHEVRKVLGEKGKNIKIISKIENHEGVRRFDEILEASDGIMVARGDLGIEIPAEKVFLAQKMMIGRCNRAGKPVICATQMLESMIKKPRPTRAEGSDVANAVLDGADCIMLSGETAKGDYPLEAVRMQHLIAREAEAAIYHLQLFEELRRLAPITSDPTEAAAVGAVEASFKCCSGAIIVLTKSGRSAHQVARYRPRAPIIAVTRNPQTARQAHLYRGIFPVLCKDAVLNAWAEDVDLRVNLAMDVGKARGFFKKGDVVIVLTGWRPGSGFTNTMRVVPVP

In the case of `Cn1c2cc([S+](C)[O-])ccc2c2cnn(Cc3cccc(N)c3)c(=O)c21` (centres unmarked) [Compound 2], the solubility at 24 h [1] is reported as 99.8 µM (≈ 36.6 µg/mL), the cell viability (661W cells; 200 nM) is reported as “significantly improved” and the cell viability (661W cells; 2 μM) is reported as “trended towards improved cell viability”. For the same compound, the “cell viability, compound alone” value (661W cells; [4]) was “no significant effect”, the AC50 ([2]; n = 3) was 120 ± 45 nM and the Emax ([2]; n = 3, read-out: 661W Cells Max Activation) was 355 ± 26%. The “caspase 3 and 7 activation” value ([3]; in presence of 500 ng/mL FasL, highest concentration tested, 8 h, versus DMSO) was “significantly decreased” and the “caspase 3 and 7 activity, compound alone” value [3, 4] was “no significant effect”.
